Values joined by “and” are separate entries in the source; they are usually repeats but may differ in a detail not shown here. Equal values may be shown once.
What follows are compounds tested against T1, rat liver partially purified KAT II (Rattus norvegicus, UniProt Q64602) (assay: Inhibition of kynurenine aminotransferase II activity ([3H]-kynurenine to [3H]-kynurenic acid)). Conditions: IC50 kynurenine aminotransferase II.
T1 construct: rat liver partially purified KAT II; from tissue; host or cells: rat liver
T1 sequence (Q64602 30-425): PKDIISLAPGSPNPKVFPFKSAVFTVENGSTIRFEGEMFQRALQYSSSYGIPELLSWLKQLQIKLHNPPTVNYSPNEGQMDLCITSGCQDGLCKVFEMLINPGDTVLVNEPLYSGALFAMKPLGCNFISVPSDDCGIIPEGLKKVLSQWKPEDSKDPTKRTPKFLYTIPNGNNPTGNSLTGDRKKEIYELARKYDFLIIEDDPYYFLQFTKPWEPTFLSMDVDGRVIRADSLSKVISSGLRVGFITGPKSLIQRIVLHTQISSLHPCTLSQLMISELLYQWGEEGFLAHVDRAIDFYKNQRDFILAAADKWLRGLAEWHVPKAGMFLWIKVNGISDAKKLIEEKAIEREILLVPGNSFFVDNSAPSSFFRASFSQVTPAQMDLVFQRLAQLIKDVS
Assay type: biochemical
Method: Compounds were tested as inhibitors of kynurenine aminotransferase II and the IC50 values determined. For the determination of the KAT II activity, 80 μl of rat liver partially purified KAT II was incubated (2 hrs at 37° C. with 100 μl of 150 mM Tris-acetate (pH 7.4), 2 μM kynurenine, (2.5 nCi) [^3H]-kynurenine 1 mM pyruvate and 70 μM pyridoxal-5′-phosphate. Add 20 μl of the inhibitor solution (10×). The reaction was terminated by the addition of 14 μl of 50% trichloroacetic acid and 1 ml of 0.1 N hydrochloric acid. The denaturated protein was removed by centrifugation and 1 ml of the supernatant was applied to a Dowex 50 W H^+ cation exchange column which was then washed with 1 ml of 0.1 N hydrochloric acid followed by 1 ml of ultrapure water. [^3H]-Kynurenic acid formed was subsequently eluted with 2×1 ml of ultrapure water and radioactivity was quantified by liquid scintillation spectrometry.
All compounds are in the racemic form, when applicable, unless indicated otherwise. Other untested compounds are commercially available or easily synthesized using standard synthetic methods. Data are presented as IC50 values in μM for all tested compounds. Blanks are untested compounds.
For `NC(CCCCCC(=O)O)C(=O)O` (racemic) [n=5, R^1 = NH^2, DL-2-amino-1,8-octanedioic acid], the IC50 was 272 µM.

Same assay, conditions: IC50 kynurenine aminotransferase II, rat liver partially purified KAT II, 2 hrs at 37° C., pH 7.4, 2 μM kynurenine, 1 mM pyruvate
For `NC(CCC(=O)O)C(=O)O` (racemic) [n=2, R^1 = NH^2, DL-2-amino-1,5-pentanedioic acid], the IC50 was 2250 µM.
For `NC(CCCCCP(=O)(O)O)C(=O)O` (stereo not drawn) [n=5, X = PO3H2 (DL), 2-amino-7-phosphonoheptanoic acid], the IC50 was 1460 µM.
`NC(CCP(=O)(O)O)C(=O)O` (racemic) [n=2, X = PO3H2 (DL), DL-2-amino-4-phosphonobutyric acid] showed an IC50 of 505 µM.

Same assay, conditions: rat liver partially purified KAT II, 2 hrs at 37° C., pH 7.4, 2 μM kynurenine, 1 mM pyruvate
For `O=C(O)CCC(=O)O` [n=1, R^1 = H], the “IC50 kynurenine aminotransferase II” value was “inactive”.
With `O=C(O)CC(=O)O` [n=0, R^1 = H] the “IC50 kynurenine aminotransferase II” value was “inactive”.
With `O=C(O)CCCCCCC(=O)O` [n=5, R^1 = H] the “IC50 kynurenine aminotransferase II” value was “inactive”.
In the case of `O=C(O)CCCC(=O)O` [n=2, R^1 = H], the “IC50 kynurenine aminotransferase II” value is reported as “inactive”.

Same assay, conditions: rat liver partially purified KAT II, 2 hrs at 37° C., pH 7.4, 2 μM kynurenine, 1 mM pyruvate; read-out: IC50 kynurenine aminotransferase II
With `O=C(O)CCCCCC(=O)O` [n=4, R^1 = H, 1,7-heptanedioic acid] the IC50 was 6370 µM.
`O=C(O)CCCCCCCCCCCC(=O)O` [n=10, R^1 = H, 1,13-tridecanedioic acid] gave an IC50 of 170 µM.
Work on `O=C(O)CCCCCCCCCCCCCCCO` [n = 13, R1, R2 = H, X = CH2OH, 16-hydroxyhexadecanoic acid] yielded an IC50 of 149 µM.
For `O=C(O)CCCCCCCCCCCCC(=O)O` [n=11, R^1 = H, 1,14-tetradecanedioic acid], the IC50 was 102 µM.
Work on `NC(CCCCCCCCC(=O)O)C(=O)O` (racemic) [n=8, R^1 = NH^2, DL-2-amino-1,11-undecanedioic acid] yielded an IC50 of 7 µM.
`NC(CCCP(=O)(O)O)C(=O)O` (racemic) [n=3, X = PO3H2 (DL), DL-2-amino-5-phosphonopentanoic acid] showed an IC50 of 1000 µM.
`CC(N)(CCCCCCCCCCCCCC(=O)O)C(=O)O` (racemic) [DL-2-amino-2-methyl-1,16-hexadecanedioic acid] gave an IC50 of 53.7 µM.
Work on `NC(CCCCCCCCCCC(=O)O)C(=O)O` (racemic) [n=10, R^1 = NH^2, DL-2-amino-1,13-tridecanedioic acid] yielded an IC50 of 7 µM.
For `O=C(O)CCCCCCCCC(=O)O` [n=7, R^1 = H, 1,10-decanedioic acid], the IC50 was 720 µM.
`O=C(O)CCCCCCCCCCCCCCC(=O)O` [n=13, R^1 = H, 1,16-hexadecanedioic acid] was tested, and the IC50 was 60 µM.
In the case of `N[C@@H](CS(=O)O)C(=O)O` [n=1, X = S02H (L), cysteinesulfinic acid], the IC50 is reported as 1150 µM.
`N[C@@H](CCS(=O)O)C(=O)O` [n=2, X = S02H (L), homocysteinesulfinic acid] showed an IC50 of 224 µM.
With `NC(CCCC(=O)O)C(=O)O` (racemic) [n=3, R^1 = NH^2, DL-2-amino-1,6-hexanedioic acid] the IC50 was 18 µM.
Compound `NC(CC(=O)O)C(=O)O` (racemic) [n=1, R^1 = NH^2, DL-2-amino-1,4-butanedioic acid] has an IC50 of 2460 µM.
In the case of `O=C(O)CCCCCCCC(=O)O` [n=6, R^1 = H, 1,9-nonanedioic acid], the IC50 is reported as 4580 µM.
`O=C(O)CCCCCCCCCCC(=O)O` [n=9, R^1 = H, 1,12-dodecanedioic acid] gave an IC50 of 256 µM.
Work on `CNC(CCCCCCCCCCCCCC(=O)O)C(=O)O` (racemic) [DL-2-methylamino-1,16-hexadecanedioic acid] yielded an IC50 of 29.3 µM.
With `NC(CS(=O)(=O)O)C(=O)O` (centres unmarked) [n=1, X = SO3H (L), 2-amino-3-sulfopropionic acid] the IC50 was 739 µM.
Compound `NC(CCS(=O)(=O)O)C(=O)O` (centres unmarked) [n=2, X = SO3H (L), 2-amino-4-sulfobutyric acid] has an IC50 of 63 µM.
Work on `O=C(O)CCCCC(=O)O` [n=3, R^1 = H, 1,6-hexanedioic acid] yielded an IC50 of 1290 µM.
`O=C(O)CCCCCCCCCCCCCC(=O)O` [n=12, R^1 = H, 1,15-pentadecanedioic acid] showed an IC50 of 71 µM.
In the case of `NC(CCCCCCCCCCCCCC(=O)O)C(=O)O` (racemic) [n=13, R^1 = NH^2, DL-2-amino-1,16-hexadecanedioic acid], the IC50 is reported as 6 µM and 6.4 µM.
`NC(CCCCCCCCCCCCCCC(=O)O)C(=O)O` (racemic) [n=14, R^1 = NH^2, DL-2-amino-1,17-heptadecanedioic acid] showed an IC50 of 85 µM.
`NC(CCCCCCCCCC(=O)O)C(=O)O` (racemic) [n=9, R^1 = NH^2, DL-2-amino-1,12-dodecandioic acid] gave an IC50 of 8 µM.
For `O=C(O)CCCCCCCCCC(=O)O` [n=8, R^1 = H, 1,11-undecanedioic acid], the IC50 was 234 µM.
In the case of `NC(CCCCCCC(=O)O)C(=O)O` (racemic) [n=6, R^1 = NH^2, DL-2-amino-1,9-nonanedioic acid], the IC50 is reported as 355 µM.
`NC(CCCCC(=O)O)C(=O)O` (racemic) [n=4, R^1 = NH^2, DL-2-amino-1,7-heptanedioic acid] showed an IC50 of 14 µM.
